Here are results for eleven molecules from PubChem BioAssay AID1259408 (Genetic Toxicology Data Bank (GENE-TOX), 2018).

The test system of the data set is GENE-TOX genotoxicity assays, various organisms and cells. Kind of data set: GENE-TOX mutagenicity studies. The note with it: for call: Assay Type: In vivo carcinogenicity studies.
The mark [1] stands for this setting: Species/Cell Type: Escherichia coli polA (W3119 vs P3478), Assay Type: Rec-assay, DNA effects (bacterial DNA repair), Assay Code: RE1T, Evaluation Type: Evaluation A (Pre-1980).
The mark [2] stands for this setting: Species/Cell Type: Human diploid fibroblasts, Assay Type: Unscheduled DNA synthesis (UDS) in vitro, DNA effects, Assay Code: UDH-, Evaluation Type: Evaluation A (Pre-1980).
Setting [3] is: Species/Cell Type: Human, Assay Type: Sister-chromatid exchange (SCE) in vitro, Assay Code: SC1+D, Dose Response: With dose response, Evaluation Type: Evaluation B (Post-1980).
Setting [4] is: Species/Cell Type: Saccharomyces cerevisiae, Assay Type: Mitotic recombination or gene conversion, Assay Code: YEH-, Evaluation Type: Evaluation A (Pre-1980).
[5] abbreviates: Species/Cell Type: Salmonella typhimurium (one or more of the five standard strains: TA98, TA100, TA1535, TA1537, and TA1538), Assay Type: Histidine reverse gene mutation, Ames assay, Assay Code: SAL-, Evaluation Type: Evaluation A (Pre-1980).
Where [6] appears, read: Species/Cell Type: Escherichia coli polA (W3110 vs P3478), Assay Type: Rec-assay, DNA effects (bacterial DNA repair), Assay Code: RE2+, Evaluation Type: Evaluation A (Pre-1980).
The mark [7] stands for this setting: Species/Cell Type: Nonhuman, Assay Code: CCG+, Evaluation Type: Evaluation A (Pre-1980).
[8] abbreviates: Species/Cell Type: Salmonella typhimurium (one or more of the five standard strains: TA98, TA100, TA1535, TA1537, and TA1538), Assay Type: Histidine reverse gene mutation, Ames assay, Assay Code: SAL+*, Activation: With metabolic activation, Evaluation Type: Evaluation A (Pre-1980).
Where [9] appears, read: Species/Cell Type: Salmonella typhimurium, Assay Type: Forward and reverse gene mutation, body fluid assay, Assay Code: BFU+, Evaluation Type: Evaluation A (Pre-1980).

Calls of active or inactive are those of the source. How the calls were made is not given here.

Regarding `CCOC(=O)CC(SP(=S)(OC)OC)C(=O)OCC` (centres undefined), the mutagenic call runs as follows: (Species/Cell Type: Bacillus subtilis (H17 vs M45), Assay Type: Rec-assay, spot test, DNA effects (bacterial DNA repair), Assay Code: REWT, Evaluation Type: Evaluation A (Pre-1980)) “no conclusion”; (Species/Cell Type: Drosophila melanogaster, Assay Type: Sex-linked recessive lethal gene mutation, Assay Code: SRL-, Evaluation Type: Evaluation A (Pre-1980)) “inactive; negative”; (Species/Cell Type: Escherichia coli WP2 UVRA, Assay Type: Tryptophan reverse gene mutation, Assay Code: WPU-*, Activation: With metabolic activation, Evaluation Type: Evaluation A (Pre-1980)) “inactive; negative”; under setting [1], “no conclusion”; (Species/Cell Type: Hordeum vulgare (barley), Assay Type: Chromosome aberrations, Assay Code: HOC+D, Dose Response: With dose response, Evaluation Type: Evaluation A (Pre-1980)) “active; positive”; under setting [2], “inactive; negative”. Besides, the mutagenic call is, setting by setting: (Species/Cell Type: Human, Assay Type: Sister-chromatid exchange (SCE) in vitro, Assay Code: SC1+D, Dose Response: With dose response, Evaluation Type: Evaluation A (Pre-1980)) “active; positive”; under setting [3], “active; positive”; (Species/Cell Type: Mammalian polychromatic erythrocytes, Assay Type: Micronucleus test, chromosome aberrations, Assay Code: MNT+, Evaluation Type: Evaluation B (Post-1980)) “active; positive”; (Species/Cell Type: Nonhuman, Assay Type: Sister-chromatid exchange (SCE) in vitro, Assay Code: SC2+D, Dose Response: With dose response, Evaluation Type: Evaluation B (Post-1980)) “active; positive”; under setting [4], “inactive; negative”; under setting [5], “inactive; negative”. For the same molecule, the call (Species/Cell Type: Nonhuman, Assay Code: CCG-, Evaluation Type: Evaluation A (Pre-1980)) was “inactive; negative”.

Consider `COP(=S)(OC)Oc1cc(Cl)c(Cl)cc1Cl`, for which the mutagenic call under setting [3] is “active; positive”.

For `CCOC(=O)Nc1ccc(-c2c3ccccc3c3cc(N)ccc3[n+]2C)cc1`, the mutagenic call (Species/Cell Type: Salmonella typhimurium (one or more of the five standard strains: TA98, TA100, TA1535, TA1537, and TA1538), Assay Type: Histidine reverse gene mutation, Ames assay, Assay Code: SAL+, Evaluation Type: Evaluation A (Pre-1980)) was “active; positive”.

As to `Cc1ccc(Cl)cc1`, the mutagenic call is, setting by setting: under setting [4], “inactive; negative”; under setting [5], “inactive; negative”.

Regarding `CN(CCC(=O)OC[C@H](N)C(=O)O)N=O`, the mutagenic call runs as follows: under setting [6], “active; positive”; under setting [1], “no conclusion”.

For the molecule `ClCCCl`, the mutagenic call was “active; positive” (Species/Cell Type: Chinese hamster ovary (CHO) cells, Assay Type: Forward gene mutation at the HPRT locus, Assay Code: CHO+, Evaluation Type: Evaluation B (Post-1980)); “active; positive” (Species/Cell Type: Drosophila melanogaster, Assay Type: Aneuploidy, sex chromosome gain, chromosome aberrations, Assay Code: DAG+F, Evaluation Type: Evaluation A (Pre-1980)); “active; positive” (Species/Cell Type: Drosophila melanogaster, Assay Type: Aneuploidy, whole sex chromosome loss, chromosome aberrations, Assay Code: DAC+F, Evaluation Type: Evaluation A (Pre-1980)); “active; positive” (Species/Cell Type: Drosophila melanogaster, Assay Type: Sex-linked recessive lethal gene mutation, Assay Code: SRL+, Evaluation Type: Evaluation A (Pre-1980)); “active; positive” (Species/Cell Type: Escherichia coli polA (W3119 vs P3478), Assay Type: Rec-assay, DNA effects (bacterial DNA repair), Assay Code: RE1+, Evaluation Type: Evaluation A (Pre-1980)); “active; positive” under setting [8]. Besides, the mutagenic call is “active; positive” under setting [9] and “active; positive” (Species/Cell Type: Syrian hamster embryo (SA7/SHE) cells, Assay Type: Cell transformation, viral enhanced, Assay Code: CT7+, Evaluation Type: Evaluation A (Pre-1980)). For the same molecule, the call under setting [7] is “active; positive”.

With `CCCCCC(=O)c1c(O)cc2c(c1O)C(=O)c1c(O)cc(O)cc1C2=O`, the mutagenic call (Species/Cell Type: Salmonella typhimurium (one or more of the five standard strains: TA98, TA100, TA1535, TA1537, and TA1538), Assay Type: Histidine reverse gene mutation, Ames assay, Assay Code: SALT, Evaluation Type: Evaluation A (Pre-1980)) was “no conclusion”.

On to `CC(C)c1ccccc1OC(=O)N(C)N=O`, for which the mutagenic call (Species/Cell Type: Bacillus subtilis (H17 vs M45T), Assay Type: Rec-assay, spot test, DNA effects (bacterial DNA repair), Assay Code: REX+, Evaluation Type: Evaluation A (Pre-1980)) is “active; positive” and the mutagenic call (Species/Cell Type: Escherichia coli WP2, Assay Type: Tryptophan reverse gene mutation, Assay Code: WP2+, Evaluation Type: Evaluation A (Pre-1980)) is “active; positive”.

As for `O=[Si]=O`, for the setting “Species/Cell Type: Nonhuman, Assay Type: Sister-chromatid exchange (SCE) in vitro, Assay Code: SC2T, Evaluation Type: Evaluation B (Post-1980)”, the mutagenic call is “no conclusion”.

Turning to `Nc1ccc(-c2ccccc2)cc1`, the mutagenic call is, setting by setting: under setting [6], “active; positive”; under setting [1], “no conclusion”; (Species/Cell Type: Fischer rat embryo (RLV/1706) cells, Assay Type: Cell transformation, viral enhanced, Assay Code: CTR+, Evaluation Type: Evaluation A (Pre-1980)) “active; positive”; under setting [2], “inactive; negative”; (Species/Cell Type: Mammalian polychromatic erythrocytes, Assay Type: Micronucleus test, chromosome aberrations, Assay Code: MNTT, Evaluation Type: Evaluation A (Pre-1980)) “no conclusion”; (Species/Cell Type: Mouse embryo (AKR/ME) cells, Assay Type: Cell transformation, Assay Code: CTK+, Evaluation Type: Evaluation A (Pre-1980)) “active; positive”. For the same molecule, the mutagenic call was “active; positive” (Species/Cell Type: Nonhuman, Assay Type: Sister-chromatid exchange (SCE) in vivo, Assay Code: SC3+, Evaluation Type: Evaluation B (Post-1980)); “active; positive” (Species/Cell Type: Rat primary hepatocytes, Assay Type: Unscheduled DNA synthesis (UDS) in vitro, DNA effects, Assay Code: UDP+, Evaluation Type: Evaluation A (Pre-1980)); “active; positive” (Species/Cell Type: Saccharomyces cerevisiae, Assay Type: Mitotic recombination or gene conversion, Assay Code: YEH+, Evaluation Type: Evaluation A (Pre-1980)); “active; positive” under setting [8]; “active; positive” under setting [9]; “active; positive” (Species/Cell Type: Salmonella typhimurium, Assay Type: Forward and reverse gene mutation, host-mediated assay, Assay Code: HMA+, Evaluation Type: Evaluation A (Pre-1980)). The mutagenic call (Species/Cell Type: Syrian hamster embryo (SHE) cells, Assay Type: Cell transformation, clonal assay, Assay Code: CTC+, Evaluation Type: Evaluation A (Pre-1980)) is “active; positive”. Besides, under setting [7], the call is “active; positive”.

As to `ClC1=C(Cl)C2(Cl)C3C(Cl)C=CC3C1(Cl)C2(Cl)Cl` (centres undefined), the mutagenic call is, setting by setting: (Species/Cell Type: Drosophila melanogaster, Assay Type: Sex-linked recessive lethal gene mutation, Assay Code: SRLT, Evaluation Type: Evaluation A (Pre-1980)) “no conclusion”; (Species/Cell Type: Zea mays (corn), Assay Type: Gene mutation, Assay Code: ZEM+, Evaluation Type: Evaluation A (Pre-1980)) “active; positive”. The call (Species/Cell Type: Nonhuman, Assay Code: CCG+L, Evaluation Type: Evaluation A (Pre-1980)) was “active; positive”.
